Target: P. falciparum apicoplast DNA polymerase (Pf-apPOL) (Plasmodium falciparum, UniProt Q8ILY1)
Experiment: Fluorescence-based high-throughput DNA polymerase assay (molecular beacon), primary screen and dose-response;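 as to % inhibition Apol 40': compound concentration given in µM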
Assay type: biochemical
Conditions: for DNA Pol: 90 min, 10 µM; for IC50: supplemental file 2, sheet IC50 nontoxic compounds, Pf-apPOL
Description: The HT assay employs a molecular beacon, a stem-loop DNA template with a Cy3 dye and the Black Hole Quencher on the 3′ and 5′ ends of the DNA, respectively. Pf-apPOL concentration is based on a calculated absorptivity of ε280 = 56750 M^−1 cm^−1. Reactions were carried out at 25 °C, using Corning 3575 […] (well-volume, 20 µL). Assays testing for compound inhibition composed of reaction buffer (pH 7.9 in 50 mM potassium acetate, 20 mM Tris-acetate and 10 mM magnesium acetate), Pf-apPOL (20 nM), DNA substrate (20 nM), dNTPs (6 µM), and compound (10 µM in DMSO). The DNA and nucleotide substrates (dNTPs) were at concentrations of 20 nM and 6 µM, respectively, in the assay. Pf-apPOL was incubated in the reaction buffer with dNTPs and the compound of interest (10 µM, in the assay) at 25 °C for 10 min. The DNA substrate was then added and the reaction was allowed to proceed for 90 min at 25 °C.
Each assay plate contained 16 negative controls (no Pf-apPOL, DMSO present) and 16 positive controls (Pf-apPOL present, no DMSO). The fluorescence of each well was determined using a BioTek Synergy Neo fluorescence plate reader using excitation and emission wavelengths of 555 and 570 nm, respectively.
In the above, Min is the average of fluorescence emission of the negative controls (substrate only), Max the average fluorescence emission from the positive controls (enzyme + substrate), and Test the emission from the assays in the presence of compounds (enzyme + compound + substrates). […] […] The IC50 of each compound was determined using Equation (2): (2) IC50= Vmax/(1+ (I/IC50)^n)
In the above, n measures cooperativity, with n > 1 indicating synergistic binding of more than a single molecule of the compound.
To identify apPOL inhibitors we utilised our previously developed high-throughput DNA polymerase assay. The HT assay is based on a molecular beacon DNA template that forms a stem-loop with a Cy3 dye and the Black Hole Quencher on the 3′ and 5′ ends of the DNA, respectively. DNA polymerase activity extends an annealed primer through the stem region, displacing the fluorophore from the quencher, thereby increasing its fluorescence (Figure 1(A)). The assay accurately recapitulates the kinetic behaviour of apPOL, as measured through more conventional low-throughput gel-based assays. The Z′ factor for the assay described here was 0.9 across all plates (data not shown).
Figure 1. High-throughput screening. (A) The fluorescent-based DNA polymerase assay used to screen the compound libraries. The DNA template strand is a hairpin loop with a primer annealed to the loop. The 3’ end of the primer is 11 bases away from the 6 bp duplex. Strand displacement activity of the DNA polymerase separates the Cy3 dye from the Black hole quencher leading to an increase in fluorescent signal. (B) The high-throughput assay workflow. The DNA polymerase is incubated with […] compound for 10 min prior to addition of the hairpin substrate. The reaction is quenched at 3 different time points and the fluorescent signal is measured and % inhibition is determined using the provided equation.

[1] = 'DNA Pol' of the 186 hits list (screen value)
[2] = primary screen value, "DNA Pol"

Chain of P. falciparum apicoplast DNA polymerase (Pf-apPOL) (Q8ILY1 entry or part of it): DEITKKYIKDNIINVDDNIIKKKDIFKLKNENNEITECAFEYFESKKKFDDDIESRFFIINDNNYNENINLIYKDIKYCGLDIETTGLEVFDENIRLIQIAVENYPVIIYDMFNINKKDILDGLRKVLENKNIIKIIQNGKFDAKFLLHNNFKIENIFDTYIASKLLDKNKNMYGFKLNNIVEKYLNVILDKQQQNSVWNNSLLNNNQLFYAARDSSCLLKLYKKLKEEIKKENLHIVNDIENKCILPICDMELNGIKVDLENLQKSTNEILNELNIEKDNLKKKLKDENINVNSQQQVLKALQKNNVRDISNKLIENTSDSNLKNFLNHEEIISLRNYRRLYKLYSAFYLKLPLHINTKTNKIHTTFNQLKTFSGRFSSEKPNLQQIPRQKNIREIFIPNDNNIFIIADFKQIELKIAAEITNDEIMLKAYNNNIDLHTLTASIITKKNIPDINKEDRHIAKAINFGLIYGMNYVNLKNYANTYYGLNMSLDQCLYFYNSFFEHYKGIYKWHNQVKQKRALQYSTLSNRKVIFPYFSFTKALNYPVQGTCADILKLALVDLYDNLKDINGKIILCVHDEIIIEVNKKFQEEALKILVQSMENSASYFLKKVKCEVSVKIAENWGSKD

For `Cc1cccc(NC(=O)Cn2ccc3c(=O)[nH]ccc32)c1C` [Molecule 11, O=C(Cn1ccc2c1cc[nH]c2=O)Nc1cccc(c1C)C], the “DNA Pol” value [1] was 54, the “% inhibition Apo pol 10'” value (DRC-1, conc 2.5) was 3.616% and the “% inhibition Apo pol 10'” value (DRC-1, conc 5) was 26.2157%. For the same compound, the “% inhibition Apo pol 10'” value (DRC-1, conc 10) was 64.035%, the “% inhibition Apo pol 10'” value (DRC-1, conc 20) was 84.2642% and the “% inhibition Apo pol 10'” value (DRC-1, conc 40) was 89.6589%. For the same compound, the “% inhibition Apo pol 10'” value (DRC-1, conc 80) was 84.1772%, the “% inhibition Apol 90'” value (DRC-1, conc 2.5) was 0.4643% and the “% inhibition Apol 90'” value (DRC-1, conc 5) was 14.6206%. For the same compound, the “% inhibition Apol 90'” value (DRC-1, conc 10) was 51.1257%, the “% inhibition Apol 90'” value (DRC-1, conc 20) was 80.5216% and the “% inhibition Apol 90'” value (DRC-1, conc 40) was 91.1147%. The “% inhibition Apol 90'” value (DRC-1, conc 80) was 90.9413%, the “% inhibition apPOL 180'” value (DRC-1, conc 2.5) was -2.306% and the “% inhibition apPOL 180'” value (DRC-1, conc 5) was 3.486%. For the same compound, the “% inhibition apPOL 180'” value (DRC-1, conc 10) was 34.4928%, the “% inhibition apPOL 180'” value (DRC-1, conc 20) was 70.7317% and the “% inhibition apPOL 180'” value (DRC-1, conc 40) was 89.3869%. For the same compound, the “% inhibition apPOL 180'” value (DRC-1, conc 80) was 93.0322%, the “% inhibition Apo pol 5'” value (DRC-2, conc 2.5) was 1.64% and the “% inhibition Apo pol 5'” value (DRC-2, conc 5) was 23%. The “% inhibition Apo pol 5'” value (DRC-2, conc 10) was 46%, the “% inhibition Apo pol 5'” value (DRC-2, conc 20) was 49% and the “% inhibition Apo pol 5'” value (DRC-2, conc 40) was 47%. The “% inhibition Apo pol 5'” value (DRC-2, conc 80) was 39%, the “% inhibition Apol 40'” value (DRC-2, conc 2.5) was 0.556% and the “% inhibition Apol 40'” value (DRC-2, conc 5) was 28%. The “% inhibition Apol 40'” value (DRC-2, conc 10) was 58%, the “% inhibition Apol 40'” value (DRC-2, conc 20) was 67% and the “% inhibition Apol 40'” value (DRC-2, conc 40) was 69%. For the same compound, the “% inhibition Apol 40'” value (DRC-2, conc 80) was 66%, the “% inhibition Apol 40'” value (DRC-2, concentration 10) was 58% and the “% inhibition Apol 40'” value (DRC-2, concentration 40) was 69%. The “% inhibition ApPOL 90'” value (DRC-2, conc 2.5) was -1.29%, the “% inhibition ApPOL 90'” value (DRC-2, conc 5) was 24% and the “% inhibition ApPOL 90'” value (DRC-2, conc 10) was 58%. The “% inhibition ApPOL 90'” value (DRC-2, conc 20) was 70%, the “% inhibition ApPOL 90'” value (DRC-2, conc 40) was 73% and the “% inhibition ApPOL 90'” value (DRC-2, conc 80) was 72%. For the same compound, the “% inhibition ApPOL 90'” value (DRC-2, concentration 10) was 58%, the “% inhibition apPOL 180'” value (DRC-2, conc 2.5) was -8% and the “% inhibition apPOL 180'” value (DRC-2, conc 5) was 13%. The “% inhibition apPOL 180'” value (DRC-2, conc 10) was 50%, the “% inhibition apPOL 180'” value (DRC-2, conc 20) was 69% and the “% inhibition apPOL 180'” value (DRC-2, conc 40) was 77%. The “% inhibition apPOL 180'” value (DRC-2, conc 80) was 77%, the “% inhibition apPOL 180'” value (DRC-2, concentration 20) was 69% and the “% inhibition apPOL 180'” value (DRC-2, concentration 40) was 77%. The “% inhibition apPOL 180'” value (DRC-2, concentration 80) was 77% and the “DNA Pol” value [2] was 54.

`COC(=O)c1sc(-c2ccc(C(C)(C)C)cc2)cc1NC(=O)CCC(=O)O` [Molecule 87, COC(=O)c1sc(cc1NC(=O)CCC(=O)O)c1ccc(cc1)C(C)(C)C] was tested, and the “DNA Pol” value [1] was 96, the “% inhibition Apo pol 10'” value (DRC-1, conc 2.5) was 19.7971% and the “% inhibition Apo pol 10'” value (DRC-1, conc 5) was 30.0237%. For the same compound, the “% inhibition Apo pol 10'” value (DRC-1, conc 10) was 55.209%, the “% inhibition Apo pol 10'” value (DRC-1, conc 20) was 85.0828% and the “% inhibition Apo pol 10'” value (DRC-1, conc 40) was 94.7696%. The “% inhibition Apo pol 10'” value (DRC-1, conc 80) was 96.2943%, the “% inhibition Apol 90'” value (DRC-1, conc 2.5) was 13.7781% and the “% inhibition Apol 90'” value (DRC-1, conc 5) was 20.5036%. For the same compound, the “% inhibition Apol 90'” value (DRC-1, conc 10) was 48.04%, the “% inhibition Apol 90'” value (DRC-1, conc 20) was 81.7697% and the “% inhibition Apol 90'” value (DRC-1, conc 40) was 91.7617%. The “% inhibition Apol 90'” value (DRC-1, conc 80) was 95.9877%, the “% inhibition apPOL 180'” value (DRC-1, conc 2.5) was 10.0944% and the “% inhibition apPOL 180'” value (DRC-1, conc 5) was 11.9548%. For the same compound, the “% inhibition apPOL 180'” value (DRC-1, conc 10) was 36.7594%, the “% inhibition apPOL 180'” value (DRC-1, conc 20) was 75.8676% and the “% inhibition apPOL 180'” value (DRC-1, conc 40) was 89.861%. For the same compound, the “% inhibition apPOL 180'” value (DRC-1, conc 80) was 95.0797%, the “% inhibition Apo pol 5'” value (DRC-2, conc 2.5) was 12% and the “% inhibition Apo pol 5'” value (DRC-2, conc 5) was 9%. The “% inhibition Apo pol 5'” value (DRC-2, conc 10) was 35%, the “% inhibition Apo pol 5'” value (DRC-2, conc 20) was 50% and the “% inhibition Apo pol 5'” value (DRC-2, conc 40) was 60%. For the same compound, the “% inhibition Apo pol 5'” value (DRC-2, conc 80) was 59%, the “% inhibition Apo pol 5'” value (DRC-2, concentration 5) was 9% and the “% inhibition Apol 40'” value (DRC-2, conc 2.5) was 11%. The “% inhibition Apol 40'” value (DRC-2, conc 5) was 9%, the “% inhibition Apol 40'” value (DRC-2, conc 10) was 40% and the “% inhibition Apol 40'” value (DRC-2, conc 20) was 61%. For the same compound, the “% inhibition Apol 40'” value (DRC-2, conc 40) was 72%, the “% inhibition Apol 40'” value (DRC-2, conc 80) was 72% and the “% inhibition Apol 40'” value (DRC-2, concentration 5) was 9%. For the same compound, the “% inhibition Apol 40'” value (DRC-2, concentration 40) was 72%, the “% inhibition Apol 40'” value (DRC-2, concentration 80) was 72% and the “% inhibition ApPOL 90'” value (DRC-2, conc 2.5) was 9%. For the same compound, the “% inhibition ApPOL 90'” value (DRC-2, conc 5) was 7%, the “% inhibition ApPOL 90'” value (DRC-2, conc 10) was 38% and the “% inhibition ApPOL 90'” value (DRC-2, conc 20) was 62%. For the same compound, the “% inhibition ApPOL 90'” value (DRC-2, conc 40) was 74%, the “% inhibition ApPOL 90'” value (DRC-2, conc 80) was 75% and the “% inhibition ApPOL 90'” value (DRC-2, concentration 2.5) was 9%. For the same compound, the “% inhibition apPOL 180'” value (DRC-2, conc 2.5) was 6%, the “% inhibition apPOL 180'” value (DRC-2, conc 5) was 4% and the “% inhibition apPOL 180'” value (DRC-2, conc 10) was 32%. For the same compound, the “% inhibition apPOL 180'” value (DRC-2, conc 20) was 57%, the “% inhibition apPOL 180'” value (DRC-2, conc 40) was 72% and the “% inhibition apPOL 180'” value (DRC-2, conc 80) was 73%. For the same compound, the “% inhibition apPOL 180'” value (DRC-2, concentration 40) was 72% and the “DNA Pol” value [2] was 96.

`COc1ccc(-c2cc3nc4c(c(=O)n3[nH]2)CCN(C(=O)CCc2ccccc2)C4)cc1` [Molecule 17] gave an IC50 of 7.1 µM.

In the case of `Cc1ccc(NC(=O)Cn2ccc3c(=O)[nH]ccc32)cc1F` [Molecule 48], the IC50 is reported as 15.3 µM.

— publication PMC9090415, “Discovery of small molecule inhibitors of Plasmodium falciparum apicoplast DNA polymerase” (Journal of Enzyme Inhibition and Medicinal Chemistry, 2022)
